# Source: patent US4623662A, “Antiatherosclerotic ureas and thioureas” (American Cyanamid Company, priority 1985, dated 1986)
# Where two headings read alike, the source gives them in different places.
# Tests used:
# [1] = target: T1, fatty acyl CoA:cholesterol acyl transferase (ACAT) (Rattus norvegicus, UniProt Q7TQM4); assay: Inhibition of ACAT from microsomes isolated from rat intestinal mucosal cells; format: biochemical
# T1 construct: the enzyme was derived from microsomes isolated from rat intestinal mucosal cells; from tissue; host or cells: rat intestinal mucosal cells, microsomes
# T1 sequence (Q7TQM4 1-524): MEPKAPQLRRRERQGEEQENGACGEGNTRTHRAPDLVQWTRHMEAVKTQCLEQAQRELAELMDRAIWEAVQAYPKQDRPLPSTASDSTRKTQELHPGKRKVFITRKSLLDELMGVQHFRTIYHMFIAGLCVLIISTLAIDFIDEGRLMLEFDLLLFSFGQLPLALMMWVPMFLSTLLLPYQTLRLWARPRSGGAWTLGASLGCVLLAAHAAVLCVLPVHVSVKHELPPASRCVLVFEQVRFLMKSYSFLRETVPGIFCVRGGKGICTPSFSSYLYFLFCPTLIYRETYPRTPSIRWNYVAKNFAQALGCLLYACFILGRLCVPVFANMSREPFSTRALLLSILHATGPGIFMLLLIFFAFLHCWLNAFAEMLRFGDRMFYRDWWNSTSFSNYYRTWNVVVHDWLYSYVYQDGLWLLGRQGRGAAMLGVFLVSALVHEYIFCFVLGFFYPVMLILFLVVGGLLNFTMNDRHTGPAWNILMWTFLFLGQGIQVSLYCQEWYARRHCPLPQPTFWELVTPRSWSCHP
# Protocol: The compounds were tested for their ability to inhibit ACAT according to the following procedure: rat adrenals were homogenized in 0.2M monobasic potassium phosphate buffer, pH 7.4, and centrifuged at 1,000 times gravity for 15 minutes at 5° C. The supernatant, containing the microsomal fraction, served as the source of the cholesterol-esterifying enzyme, fatty acyl CoA:cholesterol acyl transferase (ACAT). A mixture comprising 50 parts of adrenal supernatant, 10 parts of bovine serum albumin (50 mg/ml), 3 parts of test compound (final concentration 5.2 μg/ml), and 500 parts of buffer was preincubated at 37° C. for 10 minutes. After treatment with 20 parts of oleoyl CoA (^14 C-0.4 μCi), the mixture was incubated at 37° C. for 10 minutes. A control mixture, omitting the test compound, was prepared and treated in the same manner. The lipids from the incubation mixture was extracted into an organic solvent and separated by thin-layer chromatography. The cholesteryl ester fraction was counted in a scintillation counter. This procedure is a modification of that described by Hashimoto, et al., Life Scie., 12 (Part II), 1-12 (1973).
# The compounds of this invention were tested in vitro at several concentrations for their ability to inhibit the enzyme fatty acyl CoA:cholesterol acyl transferase (ACAT) using the hereinabove described procedure except that the enzyme was derived from microsomes isolated from rat intestinal mucosal cells rather than rat adrenal cells. The results of this test on representative compounds of this invention are given in Table III in terms of IC50 (μM), that concentration which produced 50% inhibition of the ACAT enzyme.
# cholesterol absorption = assay: Inhibition of cholesterol absorption in rats fed 1% cholesterol:0.5% cholic acid diet; format: in vivo, male Sprague-Dawley rats; conditions: po, 336 h, rat, 2 weeks; for response vs control in vivo at 0.01 %: dose .01% of the diet; for response vs control in vivo at 0.003 %: dose .003% of the diet; for response vs control in vivo at 0.03 %: dose .03% of the diet
# Procedure, shortened: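 Male Sprague-Dawley rats (150-170 g) fed 1% cholesterol:0.5% cholic acid diet for 2 weeks with compound at 0.001, 0.003, 0.01 or 0.03% of diet. Serum cholesterol measured enzymatically; liver cholesterol from saponified large-lobe sample after petroleum ether extraction. Liver and serum sterol expressed as percent of untreated controls.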
# [2] = target: T2, fatty acyl CoA: cholesterol acyl transferase (ACAT) (Rattus norvegicus, UniProt O70536); assay: Inhibition of fatty acyl CoA:cholesterol acyl transferase (ACAT), rat adrenal enzyme; format: biochemical
# T2 construct: The supernatant, containing the microsomal fraction, served as the source of the cholesterol-esterifying enzyme; from tissue; host or cells: rat adrenals, supernatant of 1,000 x g centrifugation containing the microsomal fraction
# T2 sequence (O70536 1-545): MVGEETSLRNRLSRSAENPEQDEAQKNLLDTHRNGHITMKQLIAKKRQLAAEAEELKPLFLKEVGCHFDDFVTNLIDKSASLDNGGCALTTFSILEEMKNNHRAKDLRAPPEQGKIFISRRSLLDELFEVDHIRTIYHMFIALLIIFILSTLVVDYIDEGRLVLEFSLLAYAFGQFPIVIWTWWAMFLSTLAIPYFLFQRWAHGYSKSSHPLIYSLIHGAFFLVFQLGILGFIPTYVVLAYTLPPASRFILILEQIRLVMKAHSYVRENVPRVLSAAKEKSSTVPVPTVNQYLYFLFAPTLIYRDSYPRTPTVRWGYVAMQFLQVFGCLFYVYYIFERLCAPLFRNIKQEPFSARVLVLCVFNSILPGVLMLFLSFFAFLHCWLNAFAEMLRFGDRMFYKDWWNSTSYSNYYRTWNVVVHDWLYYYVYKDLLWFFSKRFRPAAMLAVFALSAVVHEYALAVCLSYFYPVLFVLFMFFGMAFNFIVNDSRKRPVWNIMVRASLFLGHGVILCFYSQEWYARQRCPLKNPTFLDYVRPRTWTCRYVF
# Procedure, shortened: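 Enzyme source was the microsomal supernatant of rat adrenal homogenate (0.2M potassium phosphate, pH 7.4) with BSA, preincubated with compound (5.2 μg/ml final for single-point) for 10 min at 37° C. Then [14C]oleoyl CoA added, 10 min at 37° C. TLC-separated cholesteryl ester was counted; percent inhibition versus control, IC50 from several concentrations.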
# [3] = read-out: LS (liver sterol), percentage of control values
# [4] = read-out: SS (serum sterol), percentage of control values
compound,measurement,setting,value
"CCCCCCCN(Cc1ccc(CC(C)C(C)CC)cc1)C(=O)Nc1c(C)cc(Cl)cc1C (stereo not drawn) [1-(n-Heptyl)-1-[4-(2,3-dimethylpentyl)benzyl]-3-(4-chloro-2,6-dimethylphenyl)urea]",IC50,[1],20 nM
same,response vs control in vivo at 0.01 %,cholesterol absorption; [3],40%
same,response vs control in vivo at 0.01 %,cholesterol absorption; [4],43%
"CCCCCCCN(Cc1ccc(CC[S+]([O-])C(C)C)cc1)C(=O)Nc1ccc(F)cc1F (stereo not drawn) [1-(n-Heptyl)-1-[4-(2-isopropylsulfinylethyl)benzyl]-3-(2,4-difluorophenyl)urea]",IC50,[1],220 nM
same,response vs control in vivo at 0.003 %,cholesterol absorption; [3],84%
"CCCCCCCN(Cc1ccc(CCSC(C)C)cc1)C(=O)Nc1ccc(F)cc1F [1-(n-Heptyl)-1-[4-(2-isopropylthioethyl)benzyl]-3-(2,4-difluorophenyl)urea]",IC50,[1],210 nM
same,response vs control in vivo at 0.003 %,cholesterol absorption; [3],72%
"CCCCCCCN(Cc1ccc(CCCC(=O)O)cc1)C(=O)Nc1c(C)cc(Cl)cc1C [1-(n-Heptyl)-1-[4-(3-carboxypropyl)benzyl]-3-(4-chloro-2,6-dimethylphenyl)urea]",IC50,"[2]; rat adrenal ACAT, several concentrations",7220 nM
same,IC50,[1],1020 nM
"CCCCCCCN(Cc1ccc(CC2CCCC2)cc1)C(=O)Nc1ccc(F)cc1F [1-(n-Heptyl)-1-[4-(4-cyclopentylmethyl)benzyl]-3-(2,4-difluorophenyl)urea]",IC50,[1],140 nM
same,response vs control in vivo at 0.01 %,cholesterol absorption; [3],80%
"CCCCCCCN(Cc1ccc(CCCCSC(C)C)cc1)C(=O)Nc1ccc(F)cc1F [1-(n-Heptyl)-1-[4-(4-isopropylthiobutyl)benzyl]-3-(2,4-difluorophenyl)urea]",IC50,[1],3270 nM
"CCCCCCCN(Cc1ccc(COC(C)=O)cc1)C(=O)Nc1ccc(F)cc1F [1-(n-Heptyl)-1-[4-(acetoxymethyl)benzyl]-3-(2,4-difluorophenyl)urea]",IC50,[1],120 nM
same,response vs control in vivo at 0.01 %,cholesterol absorption; [3],70%
"CCCCCCCN(Cc1ccc(CC(=O)OC)cc1)C(=O)Nc1ccc(F)cc1F [1-(n-Heptyl)-1-[4-(carbomethoxymethyl)benzyl]-3-(2,4-difluorophenyl)urea]",IC50,[1],1750 nM
"CCCCCCCN(Cc1ccc(CC(=O)O)cc1)C(=O)Nc1ccc(F)cc1F [1-(n-Heptyl)-1-[4-(carboxymethyl)benzyl]-3-(2,4-difluorophenyl)urea]",IC50,[1],24000 nM
"CCCCCCCN(Cc1ccc(CO)cc1)C(=O)Nc1ccc(F)cc1F [1-(n-Heptyl)-1-[4-(hydroxymethyl)benzyl]-3-(2,4-difluorophenyl)urea]",IC50,[1],200 nM
same,response vs control in vivo at 0.003 %,cholesterol absorption; [3],81%
"CCCCCCCN(Cc1ccc(COCCC(C)C)cc1)C(=O)Nc1c(F)cc(F)cc1F [1-(n-Heptyl)-1-[4-(isopentyloxymethyl)benzyl]-3-(2,4,6-trifluorophenyl)urea]",IC50,[1],180 nM
same,response vs control in vivo at 0.001 %,"cholesterol absorption; dose .001% of the diet, read-out: LS (liver sterol), percentage of control values",75%
"CCCCCCCN(Cc1ccc(COCCC(C)C)cc1)C(=O)Nc1ccc(F)cc1F [1-(n-Heptyl)-1-[4-(isopentyloxymethyl)benzyl]-3-(2,4-difluorophenyl)urea]",IC50,[1],330 nM
same,response vs control in vivo at 0.01 %,cholesterol absorption; [3],60%
"CCCCCCCN(Cc1ccc(COCCC(C)C)cc1)C(=O)Nc1c(C)cc(Cl)cc1C [1-(n-Heptyl)-1-[4-(isopentyloxymethyl)benzyl]-3-(4-chloro-2,6-dimethylphenyl)urea]",IC50,[1],130 nM
same,response vs control in vivo at 0.003 %,cholesterol absorption; [3],47%
CCCCc1ccc(CN(CCCCCCO)C(=O)Nc2ccc(Cl)cc2C)cc1 [1-[(4-Butylphenyl)methyl]-3-(4-chloro-2-methylphenyl)-1-(6-hydroxyhexyl)urea],inhibition at 5.2 µg/mL,[2],90%
same,response vs control in vivo at 0.03 %,cholesterol absorption; [3],53%
same,response vs control in vivo at 0.03 %,cholesterol absorption; [4],6%
CCCCc1ccc(CN(CCCCC[Si](C)(C)C)C(=O)Nc2ccc(Cl)cc2C)cc1 [1-[(4-Butylphenyl)methyl]-3-(4-chloro-2-methylphenyl)-1-[5-(trimethylsilyl)pentyl]urea],inhibition at 5.2 µg/mL,[2],90%
same,response vs control in vivo at 0.03 %,cholesterol absorption; [3],62%
same,response vs control in vivo at 0.03 %,cholesterol absorption; [4],50%
"CC(C)(C)CCN(Cc1cccs1)C(=O)Nc1ccc(F)cc1F [3-(2,4-Difluorophenyl)-1-(3,3-dimethylbutyl)-1-(2-thienylmethyl)urea]",inhibition at 5.2 µg/mL,[2],90%
same,response vs control in vivo at 0.03 %,cholesterol absorption; [3],73%
same,response vs control in vivo at 0.03 %,cholesterol absorption; [4],66%
"Cc1cc(Cl)ccc1NC(=O)N(CCC(C)(C)C)Cc1cccs1 [3-(4-Chloro-2-methylphenyl)-1-(3,3-dimethylbutyl)-1-(2-thienylmethyl)urea]",inhibition at 5.2 µg/mL,[2],90%
same,response vs control in vivo at 0.03 %,cholesterol absorption; [3],64%
same,response vs control in vivo at 0.03 %,cholesterol absorption; [4],62%
